In ChEMBL document CHEMBL1127904, “D-amino acids as novel P2/P3 ligands for inhibitors of HIV-1 protease” (Bioorg Med Chem Lett, 1994):
Values belong to the compound of their own block, whether it stands above or below them.

Assays:
[1] = biological target: Human immunodeficiency virus type 1 protease (Human immunodeficiency virus 1, UniProt Q72874); test: Concentration required for in vitro inhibitory activity against HIV-1 protease
MT2 = test: Concentration required for in vitro antiviral activity against HIV-1 virus infected MT2 cells; type: functional, cell-based; settings: Homo sapiens
CCRF-CEM = test: Concentration required for in vitro antiviral activity against HIV-1 virus infected CEM cells; type: functional, cell-based; settings: Homo sapiens

Structure (SMILES): CC(=O)N[C@@H](CC(=O)OCc1ccccc1)C(=O)N[C@@H](Cc1ccccc1)[C@H](O)Cc1ccccc1C(=O)NC(C)(C)C
IC50 [1]: 85 nM

Structure (SMILES): CC(=O)N[C@H](CC(=O)OCc1ccccc1)C(=O)N[C@@H](Cc1ccccc1)[C@H](O)Cc1ccccc1C(=O)NC(C)(C)C
IC50 [1]: > 1000 nM

Structure (SMILES): CC(C)(C)NC(=O)c1ccccc1C[C@@H](O)[C@H](Cc1ccccc1)NC(=O)[C@H](CC(=O)OCc1ccccc1)NC(N)=O
IC50 [1]: 51 nM
IC50 (MT2): 11900 nM
IC50 (CCRF-CEM): 22400 nM

Structure (SMILES): CC(=O)N[C@@H](CS(=O)(=O)c1ccc2ccccc2n1)C(=O)N[C@@H](Cc1ccccc1)[C@H](O)Cc1ccccc1C(=O)NC(C)(C)C
IC50 [1]: 0.3 nM
IC50 (MT2): 180 nM
IC50 (CCRF-CEM): 53 nM

Structure (SMILES): CC(=O)N[C@@H](CSCc1ccccc1)C(=O)N[C@@H](Cc1ccccc1)[C@H](O)Cc1ccccc1C(=O)NC(C)(C)C
IC50 [1]: 45 nM
IC50 (MT2): 3120 nM
IC50 (CCRF-CEM): 2910 nM

Structure (SMILES): CC(=O)N[C@H](CS(=O)(=O)c1ccc2ccccc2c1)C(=O)N[C@@H](Cc1ccccc1)[C@H](O)Cc1ccccc1C(=O)NC(C)(C)C
IC50 [1]: 0.3 nM
IC50 (MT2): 31 nM
IC50 (CCRF-CEM): 11 nM

Structure (SMILES): CC(C)(C)NC(=O)c1ccccc1C[C@@H](O)[C@H](Cc1ccccc1)NC(=O)[C@@H](CC(=O)OCc1ccccc1)NS(C)(=O)=O
IC50 [1]: > 1000 nM

Structure (SMILES): CC(=O)N[C@H](CSCc1ccccc1)C(=O)N[C@@H](Cc1ccccc1)[C@H](O)Cc1ccccc1C(=O)NC(C)(C)C
IC50 [1]: > 1000 nM

Structure (SMILES): CC(C)(C)NC(=O)c1ccccc1C[C@@H](O)[C@H](Cc1ccccc1)NC(=O)[C@H](CC(=O)NCc1ccc2ccccc2n1)NS(C)(=O)=O
IC50 [1]: 8 nM
IC50 (MT2): 1440 nM
IC50 (CCRF-CEM): 580 nM

Structure (SMILES): CC(=O)N[C@@H](CSc1ccc2ccccc2c1)C(=O)N[C@@H](Cc1ccccc1)[C@H](O)Cc1ccccc1C(=O)NC(C)(C)C
IC50 [1]: 42 nM
IC50 (MT2): 1000 nM
IC50 (CCRF-CEM): 1130 nM

Structure (SMILES): CC(C)(C)NC(=O)c1ccccc1C[C@@H](O)[C@H](Cc1ccccc1)NC(=O)[C@H](CC(=O)OCc1ccccc1)NS(C)(=O)=O
IC50 [1]: 5.4 nM
IC50 (MT2): 1270 nM
IC50 (CCRF-CEM): 1090 nM

IC50 (CCRF-CEM): 23 nM
Structure (SMILES): CC(C)(C)NC(=O)c1ccccc1C[C@@H](O)[C@H](Cc1ccccc1)NC(=O)C(CC(N)=O)NC(=O)c1ccc2ccccc2n1 (single isomer, unassigned)
